“Also recorded” adds a separate entry of the source.
Tests used:
Solubility in solvents = assay type: physicochemical; conditions: for State: solubility in organic solvents: organic solvents such as ethyl acetate, acetone, methanol, and ethanol
aldose reductase = molecular target: T1, aldose reductase (Rattus norvegicus, UniProt P07943); experiment: Aldose reductase-inhibiting activity (rat lens homogenate supernatant, D,L-glyceroaldehyde substrate, TPNH coenzyme); assay type: biochemical; conditions: 10 mM D,L-glyceroaldehyde, 0.1 mM TPNH, pH 6.2, 25° C., absorbance at 340 nm
T1 construct: A homogenate of rat lenses was used as an enzyme source; from tissue; host or cells: rat lens, supernatant of the homogenate after centrifugation
Method: Aldose Reductase-Inhibiting Activity
A homogenate of rat lenses was used as an enzyme source, glyceroaldehyde as a substrate, and TPNH as a coenzyme. To a mixture of 0.1M phosphate buffer (pH 6.2), 0.4M sodium sulfate, 0.1 mM TPNH (reduced form of triphosphopyridine nucleotide), and 10 mM D, L-glyceroaldehyde, a supernatant obtained from the homogenate of rat lenses by centrifugation was added as an enzyme source, so that the change in absorbance at 340 nm became 0.02 units per minute at 25° C. The change in absorbance at 340 nm for initial one minute was measured at 25° C., and the inhibiting activity was determined.

| SMILES | State: solubility in organic solvents (Solubility in solvents) | Solubility (Solubility in solvents; solvents: ethyl acetate, DMSO, methanol, ethanol, chloroform, ether, petroleum ether) | IC50 (aldose reductase) [µM] |
| --- | --- | --- | --- |
| CC(C(=O)O)C1Cc2c(cc3c(c2O)C(=O)N(CC(=O)O)C3=O)O1 (centres unmarked) [RD-01-C2] | soluble |  |  |
| CC(C(=O)O)C1Cc2c(cc3c(c2O)CN(C(C)C(=O)O)C3=O)O1 (centres unmarked) [RD-01-A7] | soluble |  |  |
| CC(C(=O)O)C1Cc2c(cc3c(c2O)C(=O)N(C(C)C(=O)O)C3=O)O1 (centres unmarked) [RD-01-C3] | soluble |  |  |
| CC(C(=O)O)C1Cc2c(cc3c(c2O)CN(CC(=O)O)C3=O)O1 (centres unmarked) [RD-01-A4] | soluble | soluble in ethyl acetate, DMSO, methanol, and ethanol; also recorded: slightly soluble in chloroform and ether; also recorded: insoluble in petroleum ether |  |
| CC(C(=O)O)C1Cc2c(cc3c(c2O)C(=O)NC3=O)O1 (centres unmarked) [RD-01-C1] | soluble |  |  |
| CC(C(=O)O)C1Cc2c(cc3c(c2O)CN(C(CCC(=O)O)C(=O)O)C3=O)O1 (centres unmarked) [RD-01-A3] | soluble |  | 11.9 |
